The series in a line: Elution test, paddle method of the Japanese Pharmacopoeia (elution rate by HPLC). Format: physicochemical. The note with it: 37±0.5° C., 75 rpm; for Elution rate (%) 10 min: 10 min after addition; for Elution rate (%) 60 min: 60 min after addition; for Elution rate (%) 120 min: 120 min after addition. The protocol:
The elution test was performed according to the paddle method in the Japanese Pharmacopoeia the 17th edition. Specifically, the test solution was set to 900 mL of the elution test solution No. 1 of the Japanese Pharmacopoeia, the temperature was set to 37±0.5° C., the rotation speed was set to 75 rpm, the sample to be tested was loaded, and then about 1 mL was sampled at regular intervals, filtered through a syringe filter, and then subjected to HPLC analysis to determine the peak area of the active pharmaceutical ingredient. The obtained area was compared to the peak area of the active pharmaceutical ingredient at the elution rate of 100% to calculate the elution rate (%).
The elution rate is a value obtained by performing HPLC analysis with 200 mg of an IBP crystal all dissolved in 900 mL of the test solution, taking the obtained area as the elution rate of 100%, adding the active pharmaceutical ingredient or the active pharmaceutical ingredient carrier to the eluate, then performing sampling overtime, performing filtering and HPLC analysis to calculate the area, and comparing the area to the value of the elution rate of 100%.
An active pharmaceutical ingredient carrier (corresponding to 200 mg of an active pharmaceutical ingredient) (0.66 g) was weighed, and subjected to the elution test according to the paddle method in the Japanese Pharmacopoeia elution test method using the elution test solution No. 1 (pH 1.2). The temperature of the test solution was 37±0.5° C., and the rotation speed was 75 rpm. Sampling was performed at 5 minutes, 10 minutes, 15 minutes, 30 minutes, and then once every 15 minutes until 120 minutes after addition of the active pharmaceutical ingredient carrier, the obtained sample was immediately filtered using a syringe filter, and the elution rate (%) was calculated as described above from the peak area of the active pharmaceutical ingredient by high performance liquid chromatography (HPLC) with a UV detector.
The elution test of an IBP crystal was performed in the same manner as described above except that an ibuprofen active pharmaceutical ingredient (IBP crystals) was used instead of the active pharmaceutical ingredient carrier.
In the same manner as in the elution test, the elution test of the obtained active pharmaceutical ingredient carrier or the ezetimibe active ingredient (an ETB crystal) was performed. This test was performed using the elution test solution No. 1 (pH 1.2) same as that described above and the elution test solution No. 2 (pH 6.8).
In the same manner as described above, the elution test of the obtained active pharmaceutical ingredient carrier or the celecoxib active ingredient (a CXB crystal) was performed using the elution test solution No. 1 (pH 1.2) or the elution test solution No. 2 (pH 6.8).
In the same manner as described above, the elution test of the obtained active pharmaceutical ingredient carrier or the azilsartan active ingredient (an AZL crystal) was performed using the elution test solution No. 1 (pH 1.2).

The mark [1] stands for this setting: elution test solution No. 1 (pH 1.2), 900 mL.
[2] abbreviates: elution test solution No. 2 (pH 6.8).

On to `CCOc1nc2cccc(C(=O)O)c2n1Cc1ccc(-c2ccccc2-c2nc(=O)o[nH]2)cc1` [AZL crystal, azilsartan], for which, under setting [1], the “Elution rate (%) 10 min” value worked out at 0.58%, the “Elution rate (%) 60 min” value was 4.7% and the “Elution rate (%) 120 min” value stood at 7.4%.

Regarding `O=C1[C@H](CC[C@H](O)c2ccc(F)cc2)[C@@H](c2ccc(O)cc2)N1c1ccc(F)cc1` [ETB crystal, ezetimibe], under setting [1], the “Elution rate (%) 10 min” value is on record as 6.1%, the “Elution rate (%) 60 min” value was found to be 8.4% and the “Elution rate (%) 120 min” value is 8.4%. Moreover, under setting [2], the “Elution rate (%) 10 min” value stood at 6.6%, the “Elution rate (%) 60 min” value stood at 8.3% and the “Elution rate (%) 120 min” value was 8.2%.

Take `CC(C)Cc1ccc(C(C)C(=O)O)cc1` (stereo not drawn) [IBP crystal, ibuprofen]: under setting [1], the “Elution rate (%) 10 min” value is on record as 1.1%, the “Elution rate (%) 60 min” value came to 6.0% and the “Elution rate (%) 120 min” value worked out at 10.1%.

Source of the values: patent publication US11246931B2, “Active pharmaceutical ingredient carrier and production method of the same” (Tokuyama Corporation, priority 2017, dated 2022).
